Laboratory results published in patent EP1953147A1, “HETEROCYCLIC COMPOUND AND MEDICINAL APPLICATION THEREOF” (priority 2005, dated 2007).
Structures can show the parent of a compound that is named as a salt.

Test system: ΔG/SEAP/HCV E1E2
Experiment: Effect of test substance on cell infection with HCV pseudotype virus (SEAP reporter assay in HepG2 cells)
Type: cell-based
Conditions: Hepatitis C virus

Row | Structure (SMILES) | IC50 [nM]
1 | COc1cc(OC)cc(-c2nn(-c3cc(N4CC[C@H](O)C4)ccc3C(F)(F)F)c(=O)c3c2CCN3C(=O)OC(C)C)c1 [Example 155, 4-(3,5-dimethoxy-phenyl)-6-[5-((S)-3-hydroxy-pyrrolidin-1-yl)-2-trifluoromethyl-phenyl]-7-oxo-2,3,6,7-tetrahydro-pyrrolo[2,3-d]pyridazine-1-carboxylic acid isopropyl ester] | < 100
2 | COc1cc(OC)cc(-c2nn(-c3cc(NCCN(C)C(=O)OC(C)(C)C)ccc3C(F)(F)F)c(=O)c3c2CCC3)c1 [Example 156, (2-{3-[4-(3,5-dimethoxy-phenyl)-1-oxo-1,5,6,7-tetrahydro-cyclopenta[d]pyridazin-2-yl]-4-trifluoromethyl-phenylamino}-ethyl)-methyl-carbamic acid tert-butyl ester] | 100 to 10000
3 | CNCCNc1ccc(C(F)(F)F)c(-n2nc(-c3cc(OC)cc(OC)c3)c3c(c2=O)CCC3)c1 [Example 157, 4-(3,5-dimethoxy-phenyl)-2-[5-(2-methylamino-ethylamino)-2-trifluoromethyl-phenyl]-2,5,6,7-tetrahydro-cyclopenta[d]pyridazin-1-one hydrochloride] | 100 to 10000
4 | O=c1c2c(c(-c3ccsc3)nn1-c1cc(N3CC[C@H](O)C3)ccc1C(F)(F)F)CCC2 [Example 158, 2-[5-((S)-3-hydroxy-pyrrolidin-1-yl)-2-trifluoromethyl-phenyl]-4-thiophen-3-yl-2,5,6,7-tetrahydro-cyclopenta[d]pyridazin-1-one] | 100 to 10000
5 | COc1cc(OC)cc(-c2nn(-c3cc(NC(C)=O)ccc3C(F)(F)F)c(=O)c3c2CCC3)c1 [Example 159, N-{3-[4-(3,5-dimethoxy-phenyl)-1-oxo-1,5,6,7-tetrahydro-cyclopenta[d]pyridazin-2-yl]-4-trifluoromethyl-phenyl}-acetamide] | < 100
6 | COc1cc(OC)cc(-c2nn(-c3cc(CN(C)C)ccc3C(F)(F)F)c(=O)c3c2CCC3)c1 [Example 160, 4-(3,5-dimethoxy-phenyl)-2-(5-dimethylaminomethyl-2-trifluoromethyl-phenyl)-2,5,6,7-tetrahydro-cyclopenta[d]pyridazin-1-one hydrochloride] | 100 to 10000
